# Experimental data from patent US20080146624A1, “AMIDINES AS MODULATORS OF INDOLEAMINE 2,3-DIOXYGENASE” (INCYTE CORPORATION, priority 2006, published 2008).
# pIC50: −log10 of the molar value.
# How the values were obtained:
# [1] = system: LLC tumors; conditions: C57B1/6 mice, versus placebo; cited from earlier work
# [2] = system: P815 tumor; conditions: pre-immunized immune-competent mice; cited from earlier work
# [3] = molecular target: T1, Human indoleamine 2,3-dioxygenasae (IDO) (Homo sapiens, UniProt P14902); test: Human indoleamine 2,3-dioxygenase (IDO) enzyme assay; type: biochemical; conditions: 95 nM IDO, 2 mM D-Trp, pH 6.5, room temperature, absorbance at 321 nm
# T1 construct: His tag (N); made in house; host or cells: E. coli
# Protocol: Human indoleamine 2,3-dioxygenasae (IDO) with an N-terminal His tag was expressed in E. coli and purified to homogeneity. IDO catalyzes the oxidative cleavage of the pyrrole ring of the indole nucleus of tryptophan to yield N′-formylkynurenine. The assays were performed at room temperature as described in the literature using 95 nM IDO and 2 mM D-Trp in the presence of 20 mM ascorbate, 5 μM methylene blue and 0.2 mg/mL catalase in 50 mM potassium phosphate buffer (pH 6.5). The initial reaction rates were recorded by continuously following the absorbance increase at 321 nm due to the formation of N′-formlylkynurenine. […] The symbol “+” indicates IC50<[…]. The symbol “++” indicates […]. The symbol “+++” indicates IC50>[…].
# T1 sequence (P14902 whole entry): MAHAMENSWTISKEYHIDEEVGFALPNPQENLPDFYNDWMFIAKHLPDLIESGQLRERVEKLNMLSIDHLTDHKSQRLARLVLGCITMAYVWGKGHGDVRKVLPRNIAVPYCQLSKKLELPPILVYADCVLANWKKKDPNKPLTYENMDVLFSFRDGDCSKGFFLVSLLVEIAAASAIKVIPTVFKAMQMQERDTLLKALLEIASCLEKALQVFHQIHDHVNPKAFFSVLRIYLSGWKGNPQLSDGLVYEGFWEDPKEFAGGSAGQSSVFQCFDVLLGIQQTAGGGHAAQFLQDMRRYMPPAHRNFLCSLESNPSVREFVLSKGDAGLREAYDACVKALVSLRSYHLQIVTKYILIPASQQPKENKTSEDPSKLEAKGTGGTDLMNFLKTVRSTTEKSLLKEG
pIC50 [3],Structure (SMILES),formation of tumors [1],growth of tumors [2]
,"Cn1cc(C[C@H](N)C(=O)O)c2ccccc21 [Example 1-MT, 1-methyl-tryptophan]",markedly delayed,inhibited
< 5.00,"N#Cc1cccc(NC(=NO)c2ccoc2)c1 [Example 11, N-(3-cyanophenyl)-N′-hydroxy-furan-3-carboximidamide]",,
< 5.00,"N#Cc1cc(NC(=NO)c2ccoc2)ccc1F [Example 12, N-(3-cyano-4-fluorophenyl)-N′-hydroxyfuran-3-carboximidamide]",,
